# Laboratory results published in a melting point compilation (Tetko et al.; mined from patent text by program, amines drawn as free bases though some values may be those of a salt).
row,Compound,melting point [°C]
1,CCOC(=O)C1CCC2(NCCc3cc(OC)c(OC)cc32)C(C2c3cc(OC)c(OC)cc3CCN2CC)C1 (centres undefined),140 to 142
2,O=C(O)c1ccccc1N1CCN(CC(O)COc2ccc(O)cc2)CC1 (centres undefined),235 to 237
3,CCNC(=O)Oc1cccc(CCNC(=O)/C=C/c2cccnc2)c1,130
4,O=C1CCC(c2ccc(CCN3CCN(c4ncccn4)CC3)cc2)N1 (centres undefined),182 to 183
5,O=C(NC/C=C/c1ccccc1)c1ccoc1,115
6,COc1cc(S(C)=O)ccc1-c1nc2ncc(O)cc2[nH]1 (centres undefined),220 to 223
7,O=C(O)Cc1nn(Cc2nc3cc(F)cc(F)c3s2)c(=O)c2ccccc12,178
8,CCCCCCCCCCCCCCCCNC(=O)c1cccnc1,85 to 87
9,C=CCc1cc2c(C)cc(=O)oc2c(C)c1O,166 to 167
10,Cc1nn(C)c(Oc2ccc([N+](=O)[O-])cc2[N+](=O)[O-])c1C(=O)c1ccc(Cl)cc1Cl,190 to 192
11,CCCO[C@@H](C)C(=O)Oc1ccc(-c2ccc(O)cc2)cc1,120
12,Clc1ccc(C2(CBr)OCC(c3ccc(Cl)cc3Cl)O2)cc1 (centres undefined),82.7
13,Cn1nc2cccc(Cl)c2c1S(N)(=O)=O,173 to 175
14,CC(=O)C=Cc1ccc2c(c1)OCO2,108 to 109
15,COC(=O)C#CC(=O)c1ccccc1,31 to 35
16,CCCCCCCCCCCCCCCCNc1ccc(C(=O)NN)cc1,154 to 156
17,CCc1cc(OCc2ccc(-c3ccccc3-c3nnnn3-c3ccc([N+](=O)[O-])cc3)cc2)c2ccccc2n1,204 to 206
18,CCOC(=O)CCC1Cc2cc(O)ccc2NC1=O (centres undefined),138
19,O=C(O)C(O)C(O)C(=O)NCc1ccc2c(c1)-c1n[nH]c(=O)c3cccc(c13)O2 (centres undefined),181 to 185
20,O=C(O)CNC(=O)c1ccc(C(=O)NS(=O)(=O)c2ccccc2)cn1,190 to 191
21,Clc1ccc(Nc2ncnc(-c3ccnc(N4CCCCC4)c3)n2)cc1,205 to 206
22,O=c1cc(C=Cc2ccc(O)cc2)oc(-c2ccccc2)c1,198 to 201
23,CC(C)CCC(=O)N1C(=O)O[C@H](c2ccccc2)[C@@H]1C,76 to 77

row,Compound,melting point [°C]
1,CCN(C(=O)n1nnc2cc(Cl)c(Cl)cc21)c1ccccc1,120
2,CCCCCCCC(=O)CCCCCC(=O)N[C@@H](C)C(=O)N[C@H](CCC(=O)OCc1ccccc1)C(N)=O,137 to 141
3,COc1ccccc1-c1cc2c(ccn2C)c2c1C(=O)NC2=O,243 to 245
4,O=C(O)Cc1c(C(=O)c2cccc(F)c2)[nH]c2cc(Cl)ccc12,278 to 281
5,CCN(Cc1cc(C(C)=O)ccc1NC(C)=O)C1CCCCC1,98 to 100
6,CC(C#N)(Cn1c(C(F)(F)F)nc2ccccc21)NC(=O)c1ccc(OC(F)(F)F)cc1 (centres undefined),194
7,Nc1ncc2ncn(OC(CO)CCO)c2n1 (centres undefined),178 to 179
8,O=C(NCc1ccc(Br)cc1)c1c(F)cccc1F,142
9,Nc1cccc(CCN2CCN(c3nsc4ccccc34)CC2)c1,108
10,CNC(=S)C1=C(O)C(COC)(COC)Oc2ccc([N+](=O)[O-])cc21,97 to 101
11,C=CCc1cccc(-c2nc3n(C4CCCC4)[nH]c(CC)c-3c(=O)n2)c1O,> 280
12,COc1ccccc1N1CCN(C(=O)c2ccccc2C(c2ccc(O)cc2)c2ccc(O)cc2)CC1,229 to 231
13,COc1cc2ccoc2cc1N1CCN(CC2Cc3ccccc3C2)CC1,188 to 192
14,CNCC(O)CN1CCN(CC(O)Cn2c3ccc(Br)cc3c3cc(Br)ccc32)CC1 (centres undefined),65 to 75
15,CON(C)Cc1nc2c(N)nc3cc(-c4cccnc4)cnc3c2n1CC(C)(C)O,187 to 189
16,O=[N+]([O-])c1ccc(NCCF)nc1,126 to 127
17,CCCc1c(OC(C(=O)O)c2ccc(Cl)cc2)ccc(C(C)=O)c1O (centres undefined),163 to 164
18,Cc1cccc(NC(=O)NC2CN(C(=O)C3CCCCC3)c3ccccc3N(CC(=O)c3ccccc3C)C2=O)c1 (centres undefined),148 to 151
19,CN1Cc2c(-c3nc(CN4C(=O)c5ccccc5C4=O)no3)ncn2-c2ccccc2C1=O,239 to 240
20,Cc1ccc(C2COc3c(C)c(C)c(Br)c(C)c32)cc1 (centres undefined),108 to 109
21,Cc1cc(F)c([N+](=O)[O-])cc1[N+](=O)[O-],76
22,CC(=O)O[C@H]1CS[C@H](COC(=O)c2ccccc2)O1 (relative stereo),67 to 68
23,CCOc1cc2c(Nc3cc(OC)c(Cl)cc3Cl)c(C#N)cnc2cc1OCC1CCN(C)CC1,182 to 186

# Now from value to compound:
row,melting point [°C],Compound
1,134,CCOC(=O)C1=C(C(=O)OCC)C(c2cc(OC)c(OC)c(OC)c2)C(C(=O)OCC)=C(C)N1 (centres undefined)
2,168 to 169,COc1ccc2c(=O)c(-c3ccccc3)c(SCc3ccccn3)oc2c1
3,220 to 223,CCn1c(=O)c(-c2cc(C)cc(C)c2)cc2cnc(Nc3ccccc3)nc21
4,164 to 167,Cn1nc(-c2cccc(Cl)c2)cc1C(=O)O
5,245 to 247,CCCOc1c2nc(C(=O)OC)cc(O)c2cc2c(O)cc(C(=O)OC)nc12
6,181 to 183,CCCCc1nn(-c2cc(NC(=O)CC)ccc2C(F)(F)F)c(=O)n1Cc1ccc(-c2ccccc2S(=O)(=O)NC(=O)c2ccccc2Cl)cc1F
7,202,O=Cc1cc(Br)ccc1C(=O)O
8,153,COc1ccc(C(=O)Nc2ccc3ccc(Oc4ccccc4C)nc3n2)cc1
9,62 to 63,CCC(CC)Oc1cc([N+](=O)[O-])ccc1N
10,102 to 103,CCCc1c(OCCCCCCc2cccc(OCCCCCO)c2CCC(=O)O)ccc2c1OCCC2=O
11,106 to 108,COC(=O)C(C)c1ccc(-c2ccccc2)c(O)c1 (centres undefined)
12,124 to 125,OCc1ccc(OCc2ccc3ccccc3n2)nc1
13,143 to 145,ClCCOc1c2ccccc2c(OCCCl)c2ccccc12
14,130 to 131,CC=CC=CCOC(=O)C1=C(C)NC(C)=C(C(=O)OC)C1c1cccc(C(F)(F)F)c1 (centres undefined)
15,125 to 126,COc1ccccc1OCCNCCCc1c[nH]c2ccc(F)cc12
16,173 to 174,CCCc1nc2c(N)nc3ccccc3c2n1CCCCNC(=O)c1ccccc1
17,232 to 235,CC1(C(=O)O)CCCc2c(-c3ccc(Cl)cc3)noc2C1 (centres undefined)
18,122 to 123,Nc1sc2c(c1Cc1cccs1)CCN(Cc1ccccc1)C2
19,110 to 112,CCc1c(OC)cc(C2CN(C)CC/C2=C\C(=O)OC)cc1OC (centres undefined)
20,205 to 206,CN1C=C(C(=O)O)C(=O)CC1c1ccc(Cl)cc1 (centres undefined)
21,63 to 65,Cc1ccc(SC2CC(=O)N2CC(=O)NCCCCCCc2ccc(Cl)cc2)cc1 (centres undefined)
22,110 to 111,COC(=O)Cc1cccc(OC)c1OCCCc1cc(O)nn1Cc1ccc(Cl)cc1Cl
23,63 to 66,CCCCOC(=O)C1Oc2ccccc2Cc2ccccc2O1
24,110 to 112,c1ccc(CCNc2nccc3ccccc23)cc1
25,189 to 190,Cc1oc2c(NC(=O)c3c(Cl)cccc3Cl)cccc2c1CC1CCCCC1
26,253 to 254,COc1cc(Nc2c(C#N)cnc3cc(I)c(OC)cc23)c(Cl)cc1Cl
27,131 to 132,CCN1c2nc(Cl)ccc2NC(=O)c2cc(CCc3cccc(NS(C)(=O)=O)c3)cnc21

row,melting point [°C],Compound
1,235,NC1=NS(=O)N=C1NCCCOc1cccc2c(=O)[nH]ccc12 (centres undefined)
2,214 to 218,O=C(O)C1(c2ccc(C#Cc3ccccc3)cc2)CC1
3,136 to 137,O=C(O)Cc1cc(Br)c(-c2ccc(Cl)cc2)s1
4,145 to 146,CCOC1(c2ccccc2)CCN(C)CC1O (centres undefined)
5,155 to 160,CC(C)(C)OC(=O)N1CCC(C(=O)NC2=NCCCN2)CC1
6,73 to 75,CN(C(=O)CCN1CCC(C(O)(c2ccc(F)cc2)c2ccc(F)cc2)CC1)c1ccccc1
7,184 to 187,O=C1CC[N+]([O-])=C(c2ccccc2Cl)c2cc(Cl)ccc21
8,79.5 to 80.5,CCCCCCCCNCC(O)COc1ccc(SC)cc1 (centres undefined)
9,236 to 238,O=c1[nH]nc2n1-c1ccc(Cl)cc1C(c1ccccc1F)CC2 (centres undefined)
10,206 to 208,NC(=O)c1cc2cc(N3CCN(Cc4ccccc4)CC3)ccc2o1
11,80 to 81,COCOc1ccc(Nc2ncccc2[N+](=O)[O-])cc1
12,126 to 127,Cc1[nH]c2ccccc2c1Cc1ccncc1
13,92 to 93,C#CCOc1cc(Cl)nc(Nc2ccccc2)n1
14,78 to 79,O=c1cc(N2CCOc3ccccc32)oc2c1ccc1ccccc12
15,130 to 133,Cn1ncnc1COc1nc2c(cc1CC(C)(C)C)nnn2-c1ccccc1F
16,190 to 192,O=COCc1cc2c3ccccc3[nH]c(=O)n2n1
17,150 to 151,CCCCc1nc(Cl)c(CC=CO)n1Cc1ccc(NC(=O)c2ccccc2C(=O)O)cc1
18,186 to 188,O=C1CCCN1[C@@H]1c2cc(Cl)ccc2OCC[C@H]1O (relative stereo)
19,122 to 127,CS(=O)(=O)Nc1c(CCCCCCC(=O)O)ccc2ccccc12
20,157 to 158,Nc1cc(Oc2ccc(Oc3cc(N)cc(C(F)(F)F)c3)cc2)cc(C(F)(F)F)c1
21,166 to 168,CCc1cccc(CC)c1NC(=O)N(CC1CCCCC1)C1CCC(c2ccccc2)CC1 (centres undefined)
22,173,CN1CCN(CC(=O)Nc2ccc3c(c2)C(=O)c2cc(NC(=O)CN4CCN(C)CC4)ccc2C3=O)CC1
23,120 to 122,COCn1nc(Nc2cnccn2)c2cc(-c3ncccc3Cl)cc(OCCc3ccccn3)c21
24,192 to 194,COc1ccnc(C(=O)N[C@H]2COC(=O)[C@H](CC(=O)OC(C)(C)C)[C@@H](OC(=O)C(C)C)[C@H](C)OC2=O)c1O
25,78 to 81,CC(OC(=O)OC1CCCCC1)OC(=O)C1(C(=O)OC(C)OC(=O)OC2CCCCC2)Oc2ccc(C[C@@H](C)NC[C@H](O)c3cccc(Cl)c3)cc2O1 (some centres undefined)
26,207 to 209,O=C(O)c1cc2ncnn2nc1NCCCN1CCC(OC(c2ccccc2)c2ccccc2)CC1
